Test results as given in patent US12448391B2, “Bicyclic derivatives for treating endoparasites” (Elanco Tiergesundheit AG, priority 2019, dated 2025).

Columns and labels:
[1] = tested on: H. contortus larvae; assay: H. contortus Larval Development Assay (Hc LDA); settings: Haemonchus contortus, read-out: EC50 (motility inhibition)
Method: Ruminant Gastrointestinal (H. contortus Larval Development Assay (Hc LDA)):
H.c. eggs isolated from lamb fecal matter are allowed to hatch overnight. Test compounds are diluted in DMSO and added to a 96-well plate containing appropriate media. H.c. larvae are added to each well and plates are incubated for the desired time(s). Motility is assessed using an LCD camera imaging system. Percent motility inhibition values are generated relative to the average of the DMSO-only wells.

[2] = tested on: D. immitis microfilariae; assay: Dog heart worm microfilariae motility assay; type: cell-based; settings: Dirofilaria immitis, read-out: EC50 (motility inhibition)
[3] = tested on: Caenorhabditis elegans; assay: C. elegans development assay (Ce DA); settings: 48 h, read-out: EC90 (motility reduction)
Method: Caenorhabditis elegans (Ce): C. elegans development assay (Ce DA) measures the effect of compounds on developing nematodes. Eggs of C. elegans are deposited in a 384 well plate together with food (E. coli) and the treatment formulated in DMSO. Plates are incubated at 25° C. for 48 h to allow the development of nematodes up to the L4-stage. The effect of compounds is measured as motility reduction. Efficacy is expressed in % motility reduction compared to negative controls.

SMILES | EC50 [1] | EC50 [2] | EC90 [3]
O=C(NN1CCOc2ccccc21)c1cnc2c(-c3cc(Cl)cc(C(F)(F)F)n3)cccc2c1N1CCOCC1 [Example 5.22, 8-[4-chloro-6-(trifluoromethyl)-2-pyridyl]-N-(2,3-dihydro-1,4-benzoxazin-4-yl)-4-morpholino-quinoline-3-carboxamide] | < 1 µg/mL | < 0.1 µg/mL | 
O=C(NN1CCOc2ccccc21)c1cnc2c(-c3cc(Cl)c(F)c(Cl)c3F)cccc2c1N1CCOCC1 [Example 5.23, 8-(3,5-dichloro-2,4-difluoro-phenyl)-N-(2,3-dihydro-1,4-benzoxazin-4-yl)-4-morpholino-quinoline-3-carboxamide] | < 1 µg/mL | < 0.1 µg/mL | < 1 µg/mL
O=C(NN1CCc2ccccc21)c1cnc2c(-c3cc(F)cc(F)c3F)cccc2c1N1CCOCC1 [Example 5.24, N-indolin-1-yl-4-morpholino-8-(2,3,5-trifluorophenyl)quinoline-3-carboxamide] | < 1 µg/mL | < 0.1 µg/mL | 
N#Cc1ccc2c(N3CCOCC3)c(C(=O)NN3CCOc4ccccc43)cnc2c1-c1cc(Cl)cc(Cl)c1 [Example 5.35, 7-cyano-8-(3,5-dichlorophenyl)-N-(2,3-dihydro-1,4-benzoxazin-4-yl)-4-morpholino-quinoline-3-carboxamide] |  |  | < 1 µg/mL
O=C(NN1CCOc2ccccc21)c1cnc2c(-c3cc(F)cc(F)c3F)cccc2c1C1CC1 [Example 5.36, 4-cyclopropyl-N-(2,3-dihydro-1,4-benzoxazin-4-yl)-8-(2,3,5-trifluorophenyl)quinoline-3-carboxamide] |  |  | < 1 µg/mL
O=C(NN1CCOc2ccccc21)c1cnc2c(-c3cc(F)c(F)c(F)c3)c(F)ccc2c1N1CCOCC1 [Example 5.41, N-(2,3-dihydro-1,4-benzoxazin-4-yl)-7-fluoro-4-morpholino-8-(3,4,5-trifluorophenyl)quinoline-3-carboxamide] |  |  | < 1 µg/mL
O=C(NN1CCOc2ccccc21)c1cnc2c(-c3cc(F)cc(F)c3F)cccc2c1C1CCOCC1 [Example 5.45, N-(2,3-dihydro-1,4-benzoxazin-4-yl)-4-tetrahydropyran-4-yl-8-(2,3,5-trifluorophenyl)quinoline-3-carboxamide] |  |  | < 1 µg/mL
O=C(NN1CCOc2ccccc21)c1cnc2c(-c3cc(Cl)cc(Cl)c3F)c(F)ccc2c1N1CCOCC1 [Example 5.47, 8-(3,5-dichloro-2-fluoro-phenyl)-N-(2,3-dihydro-1,4-benzoxazin-4-yl)-7-fluoro-4-morpholino-quinoline-3-carboxamide] |  |  | < 1 µg/mL
O=C(NN1CCOc2ccccc21)c1cnc2c(-c3cc(Cl)c(F)c(Cl)c3F)c(F)ccc2c1N1CCOCC1 [Example 5.48, 8-(3,5-dichloro-2,4-difluoro-phenyl)-N-(2,3-dihydro-1,4-benzoxazin-4-yl)-7-fluoro-4-morpholino-quinoline-3-carboxamide] |  |  | < 1 µg/mL
O=C(NN1CCOc2ccccc21)c1cnc2c(-c3cc(F)nc(F)c3F)cccc2c1N1CCOCC1 [Example 5.49, N-(2,3-dihydro-1,4-benzoxazin-4-yl)-4-morpholino-8-(2,3,6-trifluoro-4-pyridyl)quinoline-3-carboxamide] |  |  | < 1 µg/mL
O=C(NN1CCc2ccccc21)c1cnc2c(-c3cc(Cl)c(F)c(Cl)c3F)c(F)ccc2c1N1CCOCC1 [Example 5.54, 8-(3,5-dichloro-2,4-difluoro-phenyl)-7-fluoro-N-indolin-1-yl-4-morpholino-quinoline-3-carboxamide] |  |  | < 1 µg/mL
COC(C)c1c(C(=O)NN2CCOc3ccccc32)cnc2c(-c3cc(F)cc(F)c3F)cccc12 (stereo not shown) [Example 5.55, N-(2,3-dihydro-1,4-benzoxazin-4-yl)-4-(1-methoxyethyl)-8-(2,3,5-trifluorophenyl)quinoline-3-carboxamide] |  |  | < 1 µg/mL
CN(C)c1c(C(=O)NN2CCOc3ccccc32)cnc2c(-c3cc(Cl)c(F)c(Cl)c3F)c(F)ccc12 [Example 5.56, 8-(3,5-dichloro-2,4-difluoro-phenyl)-N-(2,3-dihydro-1,4-benzoxazin-4-yl)-4-(dimethylamino)-7-fluoro-quinoline-3-carboxamide] |  |  | < 1 µg/mL
O=C(NN1CCOc2ccccc21)c1cnc2c(-c3c(F)c(F)cc(F)c3F)cccc2c1N1CCOCC1 [Example 5.57, N-(2,3-dihydro-1,4-benzoxazin-4-yl)-4-morpholino-8-(2,3,5,6-tetrafluorophenyl)quinoline-3-carboxamide] |  |  | < 1 µg/mL
O=C(NN1CCOc2ccccc21)c1cnc2c(-c3cc(Cl)c(F)c(Cl)c3F)c(F)ccc2c1C1CC1 [Example 5.58, 4-cyclopropyl-8-(3,5-dichloro-2,4-difluoro-phenyl)-N-(2,3-dihydro-1,4-benzoxazin-4-yl)-7-fluoro-quinoline-3-carboxamide] |  |  | < 1 µg/mL
O=C(NN1CCOc2ccccc21)c1cnc2c(-c3cc(C(F)(F)F)cc(C(F)(F)F)c3)c(F)ccc2c1N1CCOCC1 [Example 5.59, 8-[3,5-bis(trifluoromethyl)phenyl]-N-(2,3-dihydro-1,4-benzoxazin-4-yl)-7-fluoro-4-morpholino-quinoline-3-carboxamide] |  |  | < 1 µg/mL
O=C(NN1CCOc2ccccc21)c1cnc2c(-c3cc(Cl)cc(F)c3F)c(F)ccc2c1N1CCOCC1 [Example 5.60, 8-(5-chloro-2,3-difluoro-phenyl)-N-(2,3-dihydro-1,4-benzoxazin-4-yl)-7-fluoro-4-morpholino-quinoline-3-carboxamide] |  |  | < 1 µg/mL
O=C(NN1CCOc2ccccc21)c1cnc2c(-c3cc(Cl)cc(C(F)(F)F)c3)c(F)ccc2c1N1CCOCC1 [Example 5.61, 8-[3-chloro-5-(trifluoromethyl)phenyl]-N-(2,3-dihydro-1,4-benzoxazin-4-yl)-7-fluoro-4-morpholino-quinoline-3-carboxamide] |  |  | < 1 µg/mL
CON(C)c1c(C(=O)NN2CCOc3ccccc32)cnc2c(-c3cc(Cl)c(F)c(Cl)c3F)c(F)ccc12 [Example 5.62, 8-(3,5-dichloro-2,4-difluoro-phenyl)-N-(2,3-dihydro-1,4-benzoxazin-4-yl)-7-fluoro-4-[methoxy(methyl)amino]quinoline-3-carboxamide] |  |  | < 1 µg/mL
O=C(NN1CCOc2ccccc21)c1cnc2c(-c3ccc(C(F)(F)F)cc3)cccc2c1N1CCOCC1 [Example 5.63, N-(2,3-dihydro-1,4-benzoxazin-4-yl)-4-morpholino-8-[4-(trifluoromethyl)phenyl]quinoline-3-carboxamide] |  |  | < 1 µg/mL
O=C(NN1CCOc2ccccc21)c1cnc2c(-c3cc(Cl)cc(Cl)c3)ncnc2c1N1CCOCC1 [Example 6.1, 4-(3,5-dichlorophenyl)-N-(2,3-dihydro-1,4-benzoxazin-4-yl)-8-morpholino-pyrido[3,2-d]pyrimidine-7-carboxamide] | < 1 µg/mL | < 0.1 µg/mL | 
O=C(NN1CCOc2ccccc21)c1cnc2c(-c3cc(Cl)cc(Cl)c3)cncc2c1N1CCOCC1 [Example 7.1, 8-(3,5-dichlorophenyl)-N-(2,3-dihydro-1,4-benzoxazin-4-yl)-4-morpholino-1,6-naphthyridine-3-carboxamide] | < 1 µg/mL | < 0.1 µg/mL | 
